In data set [1] the test system is RD cells. Set-up: method as in Li et al. (2015) [16]. The conditions noted are these: ref Li et al. (2015) [16]; cited from earlier work.
For data set [2], the system named is Vero cells. The experiment in a line: Cytotoxicity assay (MTS) in Vero cells. The procedure: (§1) CellTiter 96® AQueous One Solution Cell Proliferation MTS [3-(4,5-dimethylthiazol-2-yl)-5-(3-carboxymethoxyphenyl)-2-(4-sulfophenyl)-2H-tetrazolium] assay kit (Promega, Madison, WI, USA) was used to evaluate the cytotoxicity of the three flavonoids according to the manufacturer’s instruction. Briefly, RD or Vero cells were seeded overnight in 96 well plates with a density of 2 × 10^5 cells/mL. Cells were then treated with various concentrations of silymarin (6.25, 12.5, 25, 50,100 and 200 μg/mL), baicalein (1.68, 3.37, 6.75, 13.5, 27, 54 and 108, μg/mL) and baicalin (2.78, 5.57, 11.15, 22.31, 44.63 and 89.26 μg/mL) prepared in maintenance media. RD or Vero cells without test compounds served as a negative control. The plate was further incubated for 24 h at 37 °C. An aliquot of 20 μL of MTS solution was added to each well and the plate was incubated for 1 h at 37 °C. The absorbance was measured at 490 nm with an Infinite 200 Pro Multiplate Reader (Tecan, Männdedorf, Switzerland) (Supplementary Figure S1). The half-maximal cytotoxic concentration (CC50) and 10% cytotoxic concentration (CC10) for each flavonoid were determined using GraphPad Prism software, version 7 (GraphPad Software, Calif, USA).

A short description of data set [3]: Cytotoxicity assay (MTS) in Vero cells. The conditions noted are these: African green monkey, Vero cells. How it is done: as §1
Data set [4] is described as follows: Cytotoxicity assay (MTS) in RD cells. The following applies: human, CC50 (half maximal cytotoxic concentration), 24 h, MTS assay. The procedure:
as §1

Data set [5] deals with RD cells. Kind of data set: Cytotoxicity assay (MTS) in RD cells. The procedure: as §1
The subject of data set [6] is EV-A71. Kind of data set: microbe, parasite or virus in culture. The class given is cell-based, Enterovirus 71 (EV-A71) strain 41 (5865/SIN/000009). The following applies: for inhibition at 54 µg/mL: EVA71, RD, read-out: Inhibition of EV-A71 viral infectivity, virucidal assay. The procedure: (§2) The plaque assay was performed using the method described by Tan et al. (2012) with minor modifications. Briefly, 6 well plates with 6 × 10^5 RD cells/mL were prepared and incubated to grow overnight at 37 °C. The supernatants collected from antiviral assays were serially diluted (10-folds) and the cell monolayer was infected with each dilution. The plates were incubated at 37 °C for 1 h. After removal of the inoculum, 1.5–2 mL of 0.9% of high viscosity carboxy methyl cellulose (CMC) (Sigma Aldrich, MO, USA) with 2% FBS in DMEM (overlay media) were added to each well. After incubation for 3 days, the overlaid media was removed. The cells were washed three times with phosphate buffered saline (PBS), fixed with 3.7% formaldehyde and stained with 0.5% crystal violet. The plaques were counted manually against a white background and pictures were taken using the CTL Immunospot® S6 Versa (Cleveland, OH, USA). All experiments were performed as three independent replicates.
(§3) RNA extractions were performed using the QIAamp ViralRNA mini kit (Qiagen, Hilden, Germany) according to the manufacturer’s instructions. TaqMan® Fast virus 1-step master mix (ABI, Carlsbad, Calif, USA) was used to carry out qRT-PCR in the CFX96 TouchTM Real-Time PCR Detection System (Bio-Rad, Calif, USA). The cDNA synthesis was carried out by reverse transcription for 5 min at 50 °C and subsequently amplified for 40 cycles at 95 °C for 3 s, 60 °C for 30 s. A standard graph was plotted using serial dilutions of the standard viral stock. The threshold cycle value (Cq) was calculated using the default setting of the machine. All experiments were performed in triplicates.
RD cells (2 × 10^4/well) were grown overnight in wells of a 96 well plate. The virus was pre-treated with each of the flavonoids for 1 h at MOI of 1 (pfu/ml = 2 × 10^4/0.1 mL). Cells were infected with the pre-treated virus-flavonoid-mixture. The inoculum was allowed to incubate with the RD cells at 37 ° for 1 h. After 1 h, the inoculum was removed, cells were washed with PBS and maintenance media was replaced. After 24 h, the supernatant was collected and infectious viral titers were quantified using the plaque assay. RNA copy number was determined by qRT-PCR [21] [Supplementary Figure S2(a)].

For data set [7], the system named is EV-A71. Kind of data set: Cell protection assay (RD cells pre-treated). The data set is classed as cell-based, Enterovirus 71 (EV-A71) strain 41 (5865/SIN/000009). The conditions noted are these: 54 μg/mL; for inhibition at 54 µg/mL: Enterovirus A, EVA71, RD, read-out: Inhibition of EV-A71 viral infectivity, cell protection assay. The procedure:
as §2, §3
RD cells (2 × 10^4/well) were seeded overnight in each well within a 96 well plate. Cells were treated with different concentrations of a flavonoid for 1 h at 37 °C. After incubation, flavonoid containing media was removed and cells were washed with PBS. […] The supernatant was collected after 24 h and the infectious viral titers were quantified using the plaque assay. RNA copy number was determined using qRT-PCR [21] […]

Data set [8] concerns EV-A71. Kind of data set: microbe, parasite or virus in culture. The class given is cell-based, Enterovirus 71 (EV-A71) strain 41 (5865/SIN/000009). The conditions noted are these: for inhibition at 54 µg/mL: EVA71, 54 μg/mL, read-out: Inhibition of EV-A71 viral infectivity, comprehensive assay. The procedure:
as §2, §3
RD cells (2 × 10^4/well) were grown overnight in wells of a 96 well plate. A monolayer of RD cells was pre-treated with various concentrations of a flavonoid for 1 h and incubated at 37 °C. Simultaneously, the virus at MOI of 1 (pfu/ml = 2 × 10^4/0.1 mL) was pre-treated with the same concentrations of the flavonoid for 1 h at 37 °C. After incubation, flavonoid containing media was removed and the RD cells were washed with PBS. The flavonoid-treated virus was added to the pre-treated RD cells for 1 h at 37 °C. The inoculum was removed, RD cells were washed with PBS and replaced with the maintenance media (DMEM supplemented with 2% FBS). After 24 h, the supernatant was collected and infectious viral titers were quantified using the plaque assay. RNA copy number was determined using qRT-PCR [21] [Supplementary Figure S2(e)].

In data set [9] the test system is EV-A71. Set-up: method as in Zhang et al. (2014) [27]. The following applies: cells treated with 30 μM prior to EV-A71 infection; ref Zhang et al. (2014) [27]; cited from earlier work.
In data set [10] the test system is EV-A71. The experiment in a line: Time course assay for virucidal activity. The class given is cell-based, Enterovirus 71 (EV-A71) strain 41 (5865/SIN/000009). The following applies: 54 μg/mL, 60 min co-incubation with EV-A71 at 37 °C, plaque assay. The procedure:
as §2, with “After removal of the inoculum, 1.5–2 mL of 0.9% of high viscosity carboxy methyl cellulose (CMC) (Sigma Aldrich, MO, USA) with 2% FBS in DMEM (overlay media) were added to each well.” left out, “replicates. RD cells (2 × 10^4/well) were grown overnight in wells of a 96 well plate. […] Cells were infected with the pre-treated virus-flavonoid-mixture and allowed to incubate with the RD cells at 37 °C for 1 h. After 1 h, the inoculum was removed, cells were washed with PBS and maintenance media was added. After 24 h, the supernatant was collected and infectious viral titers were quantified using the plaque assay.” for “replicates.”

Data set [11] concerns EV-A71. Kind of data set: Post-infection assay. The data set is classed as cell-based, Enterovirus 71 (EV-A71) strain 41 (5865/SIN/000009). The conditions noted are these: added 1 h after RD cells were infected, data not shown. The procedure: as §2, with “All experiments were performed as three independent replicates.” left out
RNA extractions were performed using the QIAamp ViralRNA mini kit (Qiagen, Hilden, Germany) according to the manufacturer’s instructions. […] The threshold cycle value (Cq) was calculated using the default setting of the machine. […]
RD cells (2 × 10^4/well) were grown overnight in wells of a 96 well plate. […] After 24 h, the supernatant was collected and infectious viral titers were quantified using the plaque assay. RNA copy number was determined using qRT-PCR [21] […]

Values after ≈ are worked out from the molar mass of the structure shown. Like-named read-outs stand apart in the source and are kept apart here.

Turning to `O=C(O)[C@H]1O[C@@H](Oc2cc3oc(-c4ccccc4)cc(=O)c3c(O)c2O)[C@H](O)[C@@H](O)[C@@H]1O` [Baicalin, reference compound], the CC50 in data set [1] is 823.53 µg/mL (≈ 1840 µM). Also, in [2] (Vero cells, 24 h, MTS assay), the CC10 was 1.718 ± 0.16 µg/mL (≈ 3.85 µM). In addition, the cytotoxic concentration (CC50) at 24 h in data set [3] was 30.47 ± 0.06 µg/mL (≈ 68.3 µM); in data set [4], 42.2 µg/mL (≈ 94.5 µM). Besides, the “CC10 (10% cytotoxic concentration)” value turned out to be 5.46 ± 5.02 µg/mL (≈ 12.2 µM) in [5] (24 h, MTS assay) and 5.46 µg/mL (≈ 12.2 µM) in [5] (24 h, MTS assay, listed as baicalin). In [5] (24 h, MTS assay), the “CC50 (half maximal cytotoxic concentration)” value amounted to 42.21 ± 4.15 µg/mL (≈ 94.6 µM).
Turning to `O=c1cc(-c2ccccc2)oc2cc(O)c(O)c(O)c12` [Baicalein], the “Virucidal Assay SI (CC50/IC50)” value in data set [6] is 13.64. The “Inhibition of EV-A71 viral infectivity, virucidal assay” value in data set [6] (54 μg/mL, plaque assay) came to 65.0%. Also, the inhibition at 54 µg/mL in [6] (Enterovirus A, 54 μg/mL, plaque assay) came out at 64%; in data set [6] (Enterovirus A, 54 μg/mL, qRT-PCR (RNA copy number)) it was 78.8%; in data set [7] (plaque assay) it was 2.2%; in data set [7] (qRT-PCR), 0%; in [8] (Enterovirus A, plaque assay) it was 89.4%; in [8] (Enterovirus A, qRT-PCR (RNA copy number)), 83%. Besides, the IC50 was 30.9 ± 5.5 µg/mL (≈ 114 µM) in data set [6] (Enterovirus A, EVA71, plaque assay, RD cells, virus pre-treated 1 h, MOI 1, read-out: Virucidal Assay IC50); 2.27 ± 4.93 µg/mL (≈ 8.4 µM) in [8] (Enterovirus A, EVA71, plaque assay, RD cells and virus both pre-treated 1 h, read-out: Comprehensive Assay IC50). Moreover, the “Inhibition of EV-A71 viral infectivity, cell protection assay” value in data set [7] (plaque assay) is reported as “no inhibition”. Besides, the “Comprehensive Assay SI (CC50/IC50)” value in [8] turned out to be 185.6. In addition, the “Effect as a prophylactic agent against EV-A71” value in data set [9] is reported as “non-effective”. In [2] (Vero cells, 24 h, MTS assay), this molecule yielded a CC10 of 148.9 ± 0.25 µg/mL (≈ 551 µM). Moreover, the CC50 at 24 h in [3] was 828.7 ± 0.93 µg/mL (≈ 3070 µM); in data set [4] (extrapolated value, above the tested concentration of 108 μg/mL) it was 421.5 ± 3.23 µg/mL (≈ 1560 µM). Further, the “CC10 (10% cytotoxic concentration)” value was found to be 90.93 ± 3.94 µg/mL (≈ 336 µM) in data set [5] (24 h, MTS assay) and 90.93 µg/mL (≈ 336 µM) in data set [5] (24 h, MTS assay, listed as baicalein). The “Concentration up to which no significant cytotoxic effects were observed” value in data set [5] (24 h incubation) was no more than 54 µg/mL. Moreover, the “Virucidal effects against EV-A71 (time course)” value in data set [10] was found to be 60%. The “Inhibition of EV-A71 post-infection” value in [11] is reported as “non-inhibitory”.
Silymarin: the “Virucidal Assay SI (CC50/IC50)” value in data set [6] was 10.53. Also, in data set [2], the CC10 worked out at 314.2 ± 0.06 µg/mL, the CC50 is recorded as 753 ± 0.17 µg/mL and the “Concentration up to which no significant cytotoxicity was shown” value is no more than 200 µg/mL.

The values above are taken from PMC7092479, “Antiviral activity of silymarin in comparison with baicalein against EV-A71” (BMC Complementary Medicine and Therapies, 2020).
